According to patent US20150087053A1, “COMPOSITIONS AND METHODS FOR INCREASING THE EXPRESSION AND SIGNALLING OF PROTEINS ON CELL SURFACES” (THE JOHNS HOPKINS UNIVERSITY, priority 2013, published 2015):
Entries after “also recorded” stand apart in the source; their conditions may differ.

Legend:
[1] = target: T1, mOREG (Mus musculus, UniProt Q920P2); assay: CRE luciferase reporter assay (Firefly:Renilla ratio), mOREG constructs; type: cell-based, murine; conditions: Rho-mOREG, Lucy-mOREG, no RTP1S, 100-300 μM eugenol
T1 construct: The mOR-EG full-length construct, containing N-terminal Flag/Rho tags; only in the L-EG and L-R-EG constructs) (N, cleaved yes); expressed in transfected cells; host or cells: HEK293T
T1 sequence (Q920P2 1-313): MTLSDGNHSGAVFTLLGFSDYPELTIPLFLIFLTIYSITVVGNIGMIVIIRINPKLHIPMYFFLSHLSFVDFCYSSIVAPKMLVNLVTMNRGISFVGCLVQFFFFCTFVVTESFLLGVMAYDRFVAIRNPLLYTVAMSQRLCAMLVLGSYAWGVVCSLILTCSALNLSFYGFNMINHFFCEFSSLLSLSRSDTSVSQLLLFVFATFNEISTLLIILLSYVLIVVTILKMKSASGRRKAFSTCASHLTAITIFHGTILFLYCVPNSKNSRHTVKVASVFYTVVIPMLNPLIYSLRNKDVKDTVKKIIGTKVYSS
Description: The luciferase assay was performed as previously described. Briefly, ORs were transfected into HEK293T cells along with constructs encoding for CREB-dependent luciferase (Firefly) and a constitutively expressed luciferase (Renilla). OR activation leads to a rise in cAMP which drives an increase in Firefly luciferase expression. Firefly activity is normalized to the activity of the Renilla luciferase to control for variation in cell number and transfection efficiency. Data were collected using a FLUOstar Omega automated platereader (BMG LabTech, Cary, N.C.). For some experiments, RTP1S was also transfected.
One-way ANOVA analysis followed by the Student-Newman Keuls test was performed on the luciferase reporter assay to compare the doses of isovaleric acid (0.1-5 mM) or eugenol (100-300 μM) to the non-treated control (0 μM). As each condition was performed in triplicate, the analyses were done with an n=3, and P values ≦0.05 were deemed significant. One-way ANOVE followed by Student-Newman Keuls was also used to analyze the surface expression data in FIG. 7. […]
As mOREG is one of the ORs that reach the cell surface under every condition tested, we expressed the OR with and without the Lucy and Rho tags and assessed its response to eugenol.

[2] = target: T2, Olfr691 (Mus musculus, UniProt Q8VGW5); assay: CRE luciferase reporter assay (Firefly:Renilla ratio), Olfr691 constructs; conditions: 0.1-5 mM isovaleric acid
T2 sequence (Q8VGW5 1-322): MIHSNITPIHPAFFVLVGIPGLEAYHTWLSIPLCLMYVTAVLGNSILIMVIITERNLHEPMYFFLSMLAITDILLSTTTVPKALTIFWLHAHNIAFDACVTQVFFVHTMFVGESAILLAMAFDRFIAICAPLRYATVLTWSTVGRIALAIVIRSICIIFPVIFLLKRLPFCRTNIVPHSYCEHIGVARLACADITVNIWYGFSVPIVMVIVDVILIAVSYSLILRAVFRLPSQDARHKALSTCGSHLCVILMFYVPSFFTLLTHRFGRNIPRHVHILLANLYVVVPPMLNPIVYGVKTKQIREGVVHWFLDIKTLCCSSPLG

| SMILES | OR activation (Firefly:Renilla ratio) [1] | OR activation (Firefly:Renilla ratio) ([2]; Lucy-Rho-Olfr691 with and without RTP1S) | OR activation (Firefly:Renilla ratio) ([2]; Rho-Olfr691 co-expressed with RTP1S) | OR activation (Firefly:Renilla ratio) ([2]; Rho-Olfr691 without RTP1S) |
| --- | --- | --- | --- | --- |
| C=CCc1ccc(O)c(OC)c1 [eugenol] | all concentrations of eugenol significantly activated; also recorded: dose-dependent activation | – | – | – |
| CC(C)CC(=O)O [isovaleric acid] | – | responded to isovaleric acid in a dose-dependent manner | dose-dependent increase in the Firefly:Renilla ratio | no concentrations of isovaleric acid activated R-691; also recorded: not significantly activated at any concentration |
